Measurements as given in ChEMBL document CHEMBL3872258, “Challenges in the development of an M4 PAM in vivo tool compound: The discovery of VU0467154 and unexpected DMPK profiles of close analogs” (Bioorg Med Chem Lett, 2017).

How the values were obtained:
[1] = molecular target: T1, Muscarinic acetylcholine receptor M4 (Homo sapiens, UniProt P08173); experiment: Positive allosteric modulation of human M4 receptor
T1 sequence (P08173 whole entry): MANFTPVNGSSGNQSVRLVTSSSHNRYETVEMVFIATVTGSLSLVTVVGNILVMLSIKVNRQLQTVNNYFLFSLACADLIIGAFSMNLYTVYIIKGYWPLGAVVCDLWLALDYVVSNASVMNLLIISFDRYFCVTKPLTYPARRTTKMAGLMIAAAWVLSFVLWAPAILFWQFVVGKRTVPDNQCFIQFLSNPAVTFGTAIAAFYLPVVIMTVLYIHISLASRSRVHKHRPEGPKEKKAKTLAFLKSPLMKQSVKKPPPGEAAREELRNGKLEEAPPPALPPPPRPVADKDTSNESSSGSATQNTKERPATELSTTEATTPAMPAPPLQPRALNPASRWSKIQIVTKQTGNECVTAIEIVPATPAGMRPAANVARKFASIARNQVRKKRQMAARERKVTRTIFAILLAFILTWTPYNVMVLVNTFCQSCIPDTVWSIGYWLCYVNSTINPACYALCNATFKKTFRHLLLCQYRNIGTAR

[2] = molecular target: T2, Muscarinic acetylcholine receptor M4 (Homo sapiens) (UniProt P08173); experiment: Positive allosteric modulation of human M4 receptor relative to acetylcholine
T2 sequence (whole entry): T1 sequence (P08173 whole entry)

[3] = Fraction unbound in rat; format: ADME
[4] = Fraction unbound in human; format: ADME
[5] = Ratio of total drug level in brain to plasma (unknown origin); format: ADME, cell-free; settings: brain and plasma
[6] = molecular target: T3, Muscarinic acetylcholine receptor M4 (Rattus norvegicus, UniProt P08485); experiment: Positive allosteric modulation of rat M4 receptor expressed in CHO cells co-expressing Gqui5 by calcium mobilization assay; format: functional, cell-based
T3 sequence (P08485 whole entry): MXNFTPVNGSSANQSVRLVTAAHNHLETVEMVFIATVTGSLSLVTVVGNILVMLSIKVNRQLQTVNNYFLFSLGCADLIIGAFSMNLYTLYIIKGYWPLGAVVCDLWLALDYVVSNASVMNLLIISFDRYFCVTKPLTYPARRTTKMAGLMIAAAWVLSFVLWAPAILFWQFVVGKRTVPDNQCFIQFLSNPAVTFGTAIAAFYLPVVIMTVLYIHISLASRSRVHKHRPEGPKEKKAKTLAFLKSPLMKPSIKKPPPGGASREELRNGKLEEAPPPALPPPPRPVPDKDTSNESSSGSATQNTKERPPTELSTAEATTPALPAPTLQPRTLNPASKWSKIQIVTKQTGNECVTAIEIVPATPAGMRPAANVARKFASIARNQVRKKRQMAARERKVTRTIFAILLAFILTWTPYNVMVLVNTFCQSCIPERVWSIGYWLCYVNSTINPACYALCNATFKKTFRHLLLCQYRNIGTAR

[7] = Ratio of total drug level in brain to plasma in Sprague-Dawley rat at 0.20 to 0.25 mg/kg, iv administered through cassette dosing after 0.25 hrs; format: ADME, organism-based
[8] = Ratio of unbound concentration in brain to plasma in Sprague-Dawley rat at 0.20 to 0.25 mg/kg, iv administered through cassette dosing after 0.25 hrs; format: ADME, organism-based
[9] = molecular target: Muscarinic acetylcholine receptor M4 (Homo sapiens) (UniProt P08173); experiment: Positive allosteric modulation of human M4 receptor expressed in CHO cells co-expressing Gqui5 by calcium mobilization assay relative to acetylcholine
[10] = molecular target: T4, Muscarinic acetylcholine receptor M4 (Rattus norvegicus) (UniProt P08485); experiment: Positive allosteric modulation of rat M4 receptor expressed in CHO cells co-expressing Gqui5 by calcium mobilization assay relative to acetylcholine; format: functional, cell-based
T4 sequence (whole entry): T3 sequence (P08485 whole entry)

[11] = molecular target: T1, Muscarinic acetylcholine receptor M4; experiment: Positive allosteric modulation of human M4 receptor expressed in CHO cells co-expressing Gqui5 by calcium mobilization assay; format: functional, cell-based
[12] = molecular target: T2, Muscarinic acetylcholine receptor M4 (Homo sapiens); experiment: Positive allosteric modulation of human M4 receptor expressed in CHO cells co-expressing Gqui5 by calcium mobilization assay relative to acetylcholine; format: functional, cell-based

SMILES | EC50 [6] [nM] | Kp [7] | K(p,uu,brain) [8] | Emax [9] [%] | also measured
COc1ccc(CNC(=O)c2sc3nnc(C)c(C)c3c2N)cc1 |  |  |  |  | EC50 [1]: 150 nM; Emax [2]: 83%; fraction unbound [3]: 0.022; fraction unbound [4]: 0.035; Kp [5]: 0.28
Cc1nnc2sc(C(=O)NCc3ccc(S(=O)(=O)C(C)C)cc3)c(N)c2c1C | 47.9 | 0.07 | 0.67 | 76.8 | 
Cc1nnc2sc(C(=O)NCc3ccc(S(=O)(=O)C(F)F)c(F)c3)c(N)c2c1C | 23.4 |  |  | 76.7 | Kp ([7]; BLD = below limit of detection): Bld; K(p,uu,brain) ([8]; BLD = below limit of detection): Bld
Cc1nnc2sc(C(=O)NCc3ccc(S(C)(=O)=O)cc3)c(N)c2c1C | 51.3 | 0.04 | 0.14 |  | Emax [10]: 72.6%; EC50 ([11]; read-out: EC50): 363 nM; Emax [12]: 73.8%
Cc1nnc2sc(C(=O)NCc3ccc(S(=O)(=O)C4CC4)cc3)c(N)c2c1C | 22.4 | 0.05 | 0.29 | 67.1 | 
CSc1ccc(CNC(=O)c2sc3nnc(C)c(C)c3c2N)cc1 | 11.2 | 0.13 | 0.48 |  | Emax [10]: 75.6%; EC50 ([11]; read-out: EC50): 60.2 nM; Emax [12]: 71.9%
COc1ccc(CNC(=O)c2sc3nc(C)cc(C)c3c2N)cc1 |  |  |  |  | fraction unbound [3]: 0.015; fraction unbound [4]: 0.004; Kp [5]: 0.38
Cc1nnc2sc(C(=O)NCc3ccc([S+](C)[O-])cc3)c(N)c2c1C (stereo not given) | 139 |  |  | 74.2 | 
Cc1nnc2sc(C(=O)NCc3cccc(S(C)(=O)=O)c3)c(N)c2c1C | 417 |  |  | 74.6 | 
Cc1nnc2sc(C(=O)NCc3ccc(S(=O)(=O)C(C)(C)C)cc3)c(N)c2c1C | 44.7 | 0.11 | 0.34 | 72.1 | 
Cc1nnc2sc(C(=O)NCc3ccc(S(C)(=O)=O)c(F)c3)c(N)c2c1C | 57.7 | 0.51 | 2.8 | 69.2 | 
Cc1nnc2sc(C(=O)NCc3ccc(S(=O)(=O)CF)cc3)c(N)c2c1C | 21.9 |  |  | 62.5 | Kp ([7]; BLD = below limit of detection): Bld; K(p,uu,brain) ([8]; BLD = below limit of detection): Bld; EC50 ([11]; read-out: pEC50 (converted)): 209 nM; Emax [12]: 62.5%
